How the values were obtained:
[1] = solubility in PBS in the presence of 1% DMSO; type: physicochemical; conditions: phosphate buffered saline with 1% DMSO, aqueous buffer, kinetic from dmso stock, PBS w/o Mg, Ca
[2] = target: isolated smooth muscle myosin (UniProt P10587); type: biochemical, chamois; conditions: for % inhibition at 5 μM (or 10 μM if racemate) Smooth: 5 μM (10 μM if racemate); for % inhibition at 5 μM (or 10 μM if racemate) Smooth / % inhibition at 50 μM (or 100 μM if racemate) Smooth: ATPase activity; for % inhibition at 50 μM (or 100 μM if racemate) Smooth: 50 μM (100 μM if racemate); for % inhibition. complete Smooth: maximum value of inhibition of ATPase activity
[3] = target: T1, isolated porcine cardiac ventricular myocardium (cardiac) (Sus scrofa, UniProt P79293); test: actomyosin steady state ATPase measurement, cardiac myosin; type: biochemical; conditions: for IC50: concentration required for semi-maximal inhibition of ATPase; for % inhibition. complete cardiac: maximum value of inhibition of ATPase activity; for inhibition at 5 µM: read-out: % inhibition at 5 μM (or 10 μM if racemate) cardiac, 5 μM (10 μM if racemate); for inhibition at 5 µM / inhibition at 50 µM: ATPase activity; for inhibition at 50 µM: read-out: % inhibition at 50 μM (or 100 μM if racemate) cardiac, 50 μM (100 μM if racemate)
T1 construct: isolated porcine cardiac ventricular myocardium (cardiac); from tissue; host or cells: porcine cardiac ventricle
Excerpt: (§1) […]; (ii) the concentration required for semi-maximal inhibition.

[4] = target: isolated smooth muscle myosin (UniProt P10587); type: biochemical, chamois; conditions: concentration required for semi-maximal inhibition of ATPase
Excerpt: (ii) the concentration required for semi-maximal inhibition.

[5] = target: recombinant Dictyostelium miozin (Dictyostelium) (Dictyostelium discoideum, UniProt P08799); test: actomyosin steady state ATPase measurement, Dictyostelium myosin; type: biochemical; conditions: for IC50: concentration required for semi-maximal inhibition of ATPase, read-out: IC50 (μM) Dicty; for % inhibition. complete Dicty: maximum value of inhibition of ATPase activity; for inhibition at 5 µM: read-out: % inhibition at 5 μM (or 10 μM if racemate) Dicty; for inhibition at 50 µM: read-out: % inhibition at 50 μM (or 100 μM if racemate) Dicty
Excerpt: as §1

[6] = target: recombinant human non-muscle myosin 2 NM2C (Homo sapiens, UniProt Q7Z406); test: actomyosin steady state ATPase measurement, NM2C; type: biochemical; conditions: for IC50: concentration required for semi-maximal inhibition of ATPase; for % inhibition. complete NM2C: maximum value of inhibition of ATPase activity; for inhibition at 5 µM: read-out: % inhibition at 5 μM (or 10 μM if racemate) NM2C, 5 μM (10 μM if racemate); for inhibition at 5 µM / inhibition at 50 µM: ATPase activity; for inhibition at 50 µM: read-out: % inhibition at 50 μM (or 100 μM if racemate) NM2C, 50 μM (100 μM if racemate)
Excerpt: as §1

[7] = test system: isolated rabbit skeletal muscle myosin (skeletal); test: actomyosin steady state ATPase measurement, skeletal muscle myosin; type: biochemical; conditions: for % inhibition at 5 μM (or 10 μM if racemate) Skeletal: 5 μM (10 μM if racemate); for % inhibition at 5 μM (or 10 μM if racemate) Skeletal / % inhibition at 50 μM (or 100 μM if racemate) Skeletal: ATPase activity; for % inhibition at 50 μM (or 100 μM if racemate) Skeletal: 50 μM (100 μM if racemate); for IC50: concentration required for semi-maximal inhibition of ATPase; for % inhibition. complete Skeletal: maximum value of inhibition of ATPase activity
Excerpt: as §1

[8] = target: recombinant human non-muscle myosin 2 NM2A (Homo sapiens, UniProt P35579); test: actomyosin steady state ATPase measurement, NM2A; type: biochemical; conditions: for IC50: concentration required for semi-maximal inhibition of ATPase; for % inhibition. complete NM2A: maximum value of inhibition of ATPase activity; for inhibition at 5 µM: read-out: % inhibition at 5 μM (or 10 μM if racemate) NM2A, 5 μM (10 μM if racemate); for inhibition at 5 µM / inhibition at 50 µM: ATPase activity; for inhibition at 50 µM: read-out: % inhibition at 50 μM (or 100 μM if racemate) NM2A, 50 μM (100 μM if racemate)
Excerpt: as §1

Chain of recombinant human non-muscle myosin 2 NM2C (Q7Z406 whole entry): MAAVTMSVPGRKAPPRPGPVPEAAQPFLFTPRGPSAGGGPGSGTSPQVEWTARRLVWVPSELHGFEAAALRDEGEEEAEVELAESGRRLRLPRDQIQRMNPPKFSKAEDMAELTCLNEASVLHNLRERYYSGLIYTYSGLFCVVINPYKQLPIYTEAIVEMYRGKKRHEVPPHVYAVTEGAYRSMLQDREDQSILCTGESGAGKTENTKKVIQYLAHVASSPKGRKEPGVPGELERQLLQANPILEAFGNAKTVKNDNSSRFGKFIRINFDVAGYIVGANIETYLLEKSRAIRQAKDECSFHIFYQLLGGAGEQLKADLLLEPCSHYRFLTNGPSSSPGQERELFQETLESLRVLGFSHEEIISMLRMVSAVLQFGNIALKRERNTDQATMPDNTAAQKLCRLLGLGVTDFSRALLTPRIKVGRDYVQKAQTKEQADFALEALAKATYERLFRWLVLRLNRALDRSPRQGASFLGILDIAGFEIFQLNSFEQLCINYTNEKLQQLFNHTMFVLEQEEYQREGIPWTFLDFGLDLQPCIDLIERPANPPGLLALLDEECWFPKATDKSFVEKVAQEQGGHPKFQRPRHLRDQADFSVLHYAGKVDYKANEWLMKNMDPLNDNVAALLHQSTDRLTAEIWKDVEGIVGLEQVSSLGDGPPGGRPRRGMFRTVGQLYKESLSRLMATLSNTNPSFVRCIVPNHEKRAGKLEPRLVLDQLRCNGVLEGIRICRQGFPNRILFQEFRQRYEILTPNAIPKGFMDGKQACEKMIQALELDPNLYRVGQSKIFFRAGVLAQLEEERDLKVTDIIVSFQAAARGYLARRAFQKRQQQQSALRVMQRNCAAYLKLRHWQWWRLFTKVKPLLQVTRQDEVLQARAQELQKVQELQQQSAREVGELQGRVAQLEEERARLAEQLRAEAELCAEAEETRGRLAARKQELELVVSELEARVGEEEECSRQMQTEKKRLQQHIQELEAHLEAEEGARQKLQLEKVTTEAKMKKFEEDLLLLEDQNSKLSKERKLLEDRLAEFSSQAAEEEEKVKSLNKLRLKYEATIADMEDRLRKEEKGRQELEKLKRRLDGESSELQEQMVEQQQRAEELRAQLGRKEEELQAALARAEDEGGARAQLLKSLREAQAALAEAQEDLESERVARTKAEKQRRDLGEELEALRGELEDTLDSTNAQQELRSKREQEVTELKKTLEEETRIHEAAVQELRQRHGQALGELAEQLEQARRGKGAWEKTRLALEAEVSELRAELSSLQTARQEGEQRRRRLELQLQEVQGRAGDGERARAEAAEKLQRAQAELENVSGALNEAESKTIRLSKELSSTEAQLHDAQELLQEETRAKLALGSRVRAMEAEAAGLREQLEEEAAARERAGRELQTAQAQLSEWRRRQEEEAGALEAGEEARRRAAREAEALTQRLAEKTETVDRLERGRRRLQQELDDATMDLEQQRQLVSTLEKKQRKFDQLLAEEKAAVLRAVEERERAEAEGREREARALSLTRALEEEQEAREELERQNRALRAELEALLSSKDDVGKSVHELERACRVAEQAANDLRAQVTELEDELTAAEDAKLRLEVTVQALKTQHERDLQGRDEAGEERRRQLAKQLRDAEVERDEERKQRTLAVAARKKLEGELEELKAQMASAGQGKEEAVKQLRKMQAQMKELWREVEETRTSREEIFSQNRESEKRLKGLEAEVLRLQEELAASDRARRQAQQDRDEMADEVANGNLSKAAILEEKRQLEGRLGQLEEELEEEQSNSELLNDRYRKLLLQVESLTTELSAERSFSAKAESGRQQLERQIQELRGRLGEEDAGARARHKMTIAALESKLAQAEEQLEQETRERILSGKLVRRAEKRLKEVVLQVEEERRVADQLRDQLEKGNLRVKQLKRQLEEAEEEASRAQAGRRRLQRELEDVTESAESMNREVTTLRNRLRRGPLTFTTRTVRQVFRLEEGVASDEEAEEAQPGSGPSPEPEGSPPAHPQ
Chain of recombinant Dictyostelium miozin (Dictyostelium) (P08799 whole entry): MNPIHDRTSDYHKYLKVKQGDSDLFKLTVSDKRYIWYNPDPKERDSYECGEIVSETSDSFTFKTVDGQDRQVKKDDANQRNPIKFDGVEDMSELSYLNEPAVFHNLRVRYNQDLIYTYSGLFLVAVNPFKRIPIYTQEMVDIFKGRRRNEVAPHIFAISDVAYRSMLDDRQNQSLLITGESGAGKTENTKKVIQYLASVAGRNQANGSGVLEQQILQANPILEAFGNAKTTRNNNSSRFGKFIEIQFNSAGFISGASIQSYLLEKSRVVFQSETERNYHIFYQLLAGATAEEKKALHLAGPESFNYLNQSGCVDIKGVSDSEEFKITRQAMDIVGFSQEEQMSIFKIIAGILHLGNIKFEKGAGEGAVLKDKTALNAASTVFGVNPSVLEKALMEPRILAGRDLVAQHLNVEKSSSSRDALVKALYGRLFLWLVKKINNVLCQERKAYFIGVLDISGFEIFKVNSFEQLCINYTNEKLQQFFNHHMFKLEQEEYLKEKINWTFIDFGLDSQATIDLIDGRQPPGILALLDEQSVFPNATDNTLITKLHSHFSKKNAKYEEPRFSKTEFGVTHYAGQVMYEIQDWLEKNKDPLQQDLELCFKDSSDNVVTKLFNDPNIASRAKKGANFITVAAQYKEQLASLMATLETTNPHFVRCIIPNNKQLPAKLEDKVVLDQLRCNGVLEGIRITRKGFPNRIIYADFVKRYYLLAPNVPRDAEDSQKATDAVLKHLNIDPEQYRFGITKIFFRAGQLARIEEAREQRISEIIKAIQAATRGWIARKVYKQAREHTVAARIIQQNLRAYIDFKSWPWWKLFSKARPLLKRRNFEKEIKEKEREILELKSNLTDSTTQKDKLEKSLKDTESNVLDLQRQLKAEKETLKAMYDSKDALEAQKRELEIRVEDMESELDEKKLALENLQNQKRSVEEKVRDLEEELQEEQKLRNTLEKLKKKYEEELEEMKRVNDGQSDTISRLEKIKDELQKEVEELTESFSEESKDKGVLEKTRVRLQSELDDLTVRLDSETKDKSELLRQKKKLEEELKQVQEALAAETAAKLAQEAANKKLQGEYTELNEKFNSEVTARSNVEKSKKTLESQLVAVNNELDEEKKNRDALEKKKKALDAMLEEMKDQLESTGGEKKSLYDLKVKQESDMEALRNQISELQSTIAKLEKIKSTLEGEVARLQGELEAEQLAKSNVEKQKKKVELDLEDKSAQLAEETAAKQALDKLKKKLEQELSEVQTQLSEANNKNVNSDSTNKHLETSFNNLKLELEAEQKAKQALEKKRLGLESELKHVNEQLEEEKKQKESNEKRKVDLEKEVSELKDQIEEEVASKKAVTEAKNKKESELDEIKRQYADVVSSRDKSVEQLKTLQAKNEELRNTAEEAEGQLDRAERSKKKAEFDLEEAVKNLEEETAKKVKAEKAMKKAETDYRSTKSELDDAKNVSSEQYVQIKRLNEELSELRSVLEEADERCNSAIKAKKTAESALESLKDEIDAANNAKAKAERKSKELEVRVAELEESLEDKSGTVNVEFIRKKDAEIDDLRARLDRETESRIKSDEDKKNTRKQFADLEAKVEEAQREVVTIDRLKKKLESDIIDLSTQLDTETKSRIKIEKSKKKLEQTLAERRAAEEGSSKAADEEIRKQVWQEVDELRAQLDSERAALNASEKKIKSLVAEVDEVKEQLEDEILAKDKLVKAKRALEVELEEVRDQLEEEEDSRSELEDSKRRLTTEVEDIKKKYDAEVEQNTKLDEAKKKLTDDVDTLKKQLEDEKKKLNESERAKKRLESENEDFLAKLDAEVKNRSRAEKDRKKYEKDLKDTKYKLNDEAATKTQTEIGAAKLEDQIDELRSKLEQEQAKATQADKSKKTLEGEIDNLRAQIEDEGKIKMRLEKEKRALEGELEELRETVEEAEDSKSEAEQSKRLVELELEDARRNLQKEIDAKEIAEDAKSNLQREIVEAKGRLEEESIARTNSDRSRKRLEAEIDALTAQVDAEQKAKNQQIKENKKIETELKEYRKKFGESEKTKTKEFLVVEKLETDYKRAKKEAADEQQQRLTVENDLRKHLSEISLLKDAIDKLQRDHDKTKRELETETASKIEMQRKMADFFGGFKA

Row | SMILES | solubility [1] [µM] | % inhibition at 5 μM (or 10 μM if racemate) Smooth [2] [%] | % inhibition at 50 μM (or 100 μM if racemate) Smooth [2] [%] | % inhibition. complete Smooth [2] [%] | IC50 [3] [µM] | % inhibition. complete cardiac [3] [%] | inhibition at 5 µM [3] [%] | inhibition at 50 µM [3] [%] | IC50 [4] [µM] | IC50 [5] [µM] | % inhibition. complete Dicty [5] [%] | inhibition at 5 µM [5] [%] | inhibition at 50 µM [5] [%] | IC50 [6] [µM] | % inhibition. complete NM2C [6] [%] | inhibition at 5 µM [6] [%] | inhibition at 50 µM [6] [%] | % inhibition at 5 μM (or 10 μM if racemate) Skeletal [7] [%] | % inhibition at 50 μM (or 100 μM if racemate) Skeletal [7] [%] | IC50 [7] [µM] | also measured
1 | COc1ccc(N2CC[C@@]3(O)C(=O)c4ccsc4N=C23)cc1 [Compound 211, (9S)-9-hydroxy-12-(4-methoxyphenyl)-4-thia-2,12-diazatricyclo[7.3.0.0^3,7]dodeca-1,3(7),5-trien-8-one] | 510 | 34 | 74 | 85 | 1.3 | 87 | 67 | 85 | 7 | 9.4 | 100 | 33 | 85 | 2 | 70 | 46 | 67 | 93 | 98 | 0.28 | % inhibition. complete Skeletal [7]: 98%; IC50 [8]: 22 µM; % inhibition. complete NM2A [8]: 99%; inhibition at 5 µM [8]: 17%; inhibition at 50 µM [8]: 69%
2 | N#Cc1ccc(N2CC[C@@]3(O)C(=O)c4ccsc4N=C23)cc1 [Compound 213, (9S)-4-{9-Hydroxy-8-oxo-4-thia-2,12-diazatricyclo[7.3.0.0^3,7]dodeca-1,3(7),5-trien-12-yl}benzonitrile] | 410 | 16 | 57 | 78 | 1.8 | 87 | 61 | 84 | 18 | 3.5 | 87 | 50 | 81 | 8 | 63 | 22 | 54 | 89 | 98 | 0.58 | Inhibition (%) Dicty ([5]; maximum inhibition, compounds in IC50 range 1-11 μM): 87%; % inhibition. complete Skeletal [7]: 99%; IC50 [8]: 23 µM; % inhibition. complete NM2A [8]: 74%; inhibition at 5 µM [8]: 13%; inhibition at 50 µM [8]: 51%
3 | CC(=O)c1ccc(N2CC[C@@]3(O)C(=O)c4ccsc4N=C23)cc1 [Compound 214, (9S)-12-(4-acetylphenyl)-9-hydroxy-4-thia-2,12-diazatricyclo[7.3.0.0^3,7]dodeca-1,3(7),5-trien-8-one] | 820 | 6 | 52 | 100 | 8.8 | 86 | 30 | 73 | 49 | 36 | 100 | 8 | 59 | 2.9 | 36 | 21 | 34 | 80 | 97 | 1.2 | Inhibition (%) NM2C ([6]; maximum inhibition, compounds in IC50 range 1-5 μM): 36%; % inhibition. complete Skeletal [7]: 100%; IC50 [8]: 1 µM; % inhibition. complete NM2A [8]: 32%; inhibition at 5 µM [8]: 25%; inhibition at 50 µM [8]: 31%
